Columns and labels:
human La antigen = target: T1, human La antigen (Homo sapiens, UniProt P05455, T302N); test: ALARM NMR; assay type: binding; conditions: 400 μM compound; for ALARM NMR, (-) DTT: 0 mM DTT; for ALARM NMR, (+) DTT: DTT present; for ALARM NMR interpretation: with and without DTT
T1 construct: amino acids 100–324 of the human La antigen (plus T302N mutation); 6xHis (N); 6xHis (C); host or cells: Escherichia coli Rosetta cells
T1 sequence (P05455 100-324 T302N): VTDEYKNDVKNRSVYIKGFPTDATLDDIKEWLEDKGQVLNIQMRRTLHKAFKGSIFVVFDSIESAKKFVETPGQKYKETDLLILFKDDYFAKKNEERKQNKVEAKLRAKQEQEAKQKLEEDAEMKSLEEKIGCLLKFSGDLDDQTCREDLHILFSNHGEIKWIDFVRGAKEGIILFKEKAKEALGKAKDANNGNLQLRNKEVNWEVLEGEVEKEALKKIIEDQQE
Text: The gene encoding amino acids 100–324 of the human La antigen (plus T302N mutation) was cloned into pET28b + vector (Novagen) with both an N- and C-terminal 6xHis tag (addgene.org, plasmid ID 90209). The sequence identity of the ALARM NMR plasmid construct was verified by Sanger sequencing of the transgene region and next-generation sequencing of the whole plasmid.
Plasmid was transformed into Escherichia coli Rosetta cells (Novagen) and cultured in M9 minimal media. The La antigen was labeled by adding ^13C-labeled amino acid precursors ([3-^13C]-α-ketobutyrate and [3,3′-^13C]-α-ketoisovalerate sodium salts; Cambridge Isotope Laboratories; 250 mg L^−1 final concentrations) to culture medium 30 min before induction with IPTG (1 mM final concentration). Bacteria were collected after incubation at 25 °C for 8 h and washed with ice-cold phosphate-buffered saline (PBS). Washed cells were lysed by French press in ice-cold lysis buffer (50 mM Tris, pH 7.6, 300 mM NaCl, 10% glycerol (v/v), 5 mM β-mercaptoethanol (BME), 5 mM imidazole, 2 mM MgCl2, benzonase, and protease inhibitor cocktail), followed by an additional brief sonication step (3 × 15 s pulse sequence) on ice. This lysed solution was centrifuged (30,000×g for 30 min, two cycles) to remove cellular debris, then loaded onto a pre-washed Ni-NTA bead column (Qiagen) kept at 4 °C and washed with buffer (50 mM Tris, pH 7.6, 300 mM NaCl, 10% glycerol (v/v), 5 mM BME, 5 mM imidazole). The La antigen was eluted with an elution buffer (50 mM Tris, pH 7.6, 300 mM NaCl, 10% glycerol (v/v), 5 mM BME, imidazole gradient ranging from 5 mM to 0.5 M). […] Aliquots were flash-frozen in liquid N2 and stored at −80 °C until further use. Before use, aliquots of ~150 μM protein were incubated in the presence of 20 mM DTT at 37 °C for 1 h, then dialyzed (25 mM sodium phosphate buffer, pH 7.0 (no DTT)) in 16 h cycles at 4 °C with constant nitrogen bubbling and with gentle stirring, for three total buffer cycles.
For standard testing conditions, the [^1H-^13C]-HMQC spectra were acquired in 25 mM sodium phosphate buffer, pH 7.0, 10% D2O (v/v; CIL) ± 400 μM test compounds delivered from the aforementioned stock solutions, and ± 20 mM non-deuterated DTT. Final concentration of DMSO was 4.0% (v/v). Reaction solutions were mixed, then centrifuged for 5 min (1000×g) in non-binding 384-well microplates at RT, then incubated at 37 °C for 1 h and then 30 °C for 15 h before obtaining spectra. Samples were checked for evidence of gross precipitation. Data were recorded at 298 K on a Bruker UltraShield 700 MHz NMR spectrometer equipped with a Bruker 1.7 mm TCI Cryoprobe and Bruker SampleJet autosampler. Samples were tested at 50 μM protein concentrations using 16 scans, 2048 complex points in F2, and 80 points in F1 using standard protein [^1H-^13C]-HMQC and water suppression pulse sequences.
Data were analyzed in TopSpin™ 3.5 (Bruker). Reactions were normalized to equivalent DMSO controls. Non-reactive compounds were identified by the absence of chemical shifts or changes in peak intensities (^13C-methyl) ± 20 mM DTT.

MOZ [1] = target: MOZ; parameters: method as in ref 26 (Supplementary References); conditions: original report; ref 26 (Supplementary References); cited from earlier work
[2] = UPLC-MS gross compound stability in assay buffer; conditions: 25 mM sodium phosphate, pH 7.0, 30 °C, no GSH or CoA
Description: Select compounds were incubated up to 24 h for additional stability analyses. Chromatograms and mass spectra were qualitatively analyzed for the formation of new peaks and/or loss of parent peaks.

MOF = system: MOF; parameters: method as in ref 19, 26 (Supplementary References); conditions: original report; 26 (Supplementary References); cited from earlier work
PCAF = target: T2, PCAF (Homo sapiens, UniProt Q92831); conditions: original report; 27 (Supplementary References); cited from earlier work
T2 construct: Reaction Biology Corporation (assays run by this contract lab)

MOZ [3] = conditions: original report; ref 26 (Supplementary References); cited from earlier work
AmpC β-lactamase = target: T3, AmpC β-lactamase (Escherichia coli, UniProt P00811); test: biochemical; parameters: species or system E. coli; conditions: 10 μM compound; ± 0.01% Triton X-100
T3 construct: Recombinant E. coli AmpC (amino acids 20–377); purchased MyBioSource.com
Description: Selected compounds were assessed for aggregation using a modified AmpC β-lactamase counter-screen[24],[32],[64]. Recombinant E. coli AmpC (amino acids 20–377) was obtained from MyBioSource.com. Testing was performed in ALARM NMR buffer (25 mM sodium phosphate, pH 7.0) in flat-bottom UV-transparent 96-well microplates in 150 μL reaction volumes. Compounds were tested in triplicate at 10 μM final concentrations in either the presence or absence of freshly-prepared 0.01% Triton X-100 (v/v). Final concentration of DMSO was 2.0% (v/v). Compounds were incubated with ~5 nM AmpC in 147 μL reaction buffer for 5 min at RT, followed by the addition of 3 μL of nitrocefin substrate (100 μM final concentration). Reaction solutions were gently mixed by pipetting up and down three times using a multichannel pipette. […] Percent activity was normalized to DMSO-only controls. Fluconazole and lidocaine were included as negative aggregation control compounds. Rottlerin was included as a positive aggregation control compound. Aggregators were defined as compounds with significant detergent-dependent changes in AmpC activity (t-test, adjusted P-value <0.05; mean differences greater than 30%). Activators were defined as compounds that increased AmpC enzymatic activity.

Absorbance spectra = assay type: physicochemical; conditions: 25 mM sodium phosphate, pH 7.0
Description: Selected test compounds were assessed for absorption between 300 and 750 nm. Most compound absorption spectra were obtained at 100, 50, and 10 μM final compound concentrations in ALARM NMR buffer (25 mM sodium phosphate, pH 7.0). Final concentration of DMSO was constant at 2.0% (v/v). Compounds were allowed to incubate at RT in buffer for 10 min in UV-transparent polystyrene 384-well plates. Absorbance spectra were then obtained on a SpectraMax M3 or BMG Labtech CLARIOstar microplate reader at 25 °C. Significant absorbance was defined as molar absorptivity constants greater than 2000 M^−1 cm^−1 at wavelengths greater than 300 nm.

p300/CBP = conditions: original report; 27 (Supplementary References); cited from earlier work
[4] = parameters: method as in not given; conditions: noted in discussion; ref not given; cited from earlier work

Row | SMILES | ALARM NMR, (-) DTT (human La antigen) | ALARM NMR, (+) DTT (human La antigen) | ALARM NMR interpretation (human La antigen) | Kd (MOZ [1]) | UPLC-MS buffer stability counter-screen [2] | IC50 (MOF) | IC50 (PCAF) | Ki (MOZ [3]) | AmpC aggregation counter-screen (AmpC β-lactamase) | Absorption max (nm) (Absorbance spectra) | Absorbance counter-screen (Absorbance spectra; 300-750 nm) | ALARM NMR readout (human La antigen; overall readout) | IC50 (p300/CBP) | cell permeability [4]
1 | N#Cc1c2ccc(N)cc2nc2cc(N)ccc12 [Compound 22, CTx-1] | Negative | Negative | Inert as tested | 380 nM | Grossly stable | > 100 µM | > 100 µM | 2400 nM | Detergent-insensitive | Nominal | Negative |  |  | 
2 | CC(=O)N[C@H](CCCCNC(=O)CSCCNC(=O)CCNC(=O)C(O)C(C)(C)COP(=O)(O)OP(=O)(O)OC[C@H]1O[C@@H](n2cnc3c(N)ncnc32)[C@H](O)[C@@H]1OP(=O)(O)O)C(N)=O (stereo partly shown) [Compound 23, Lys-CoA] | Negative | Negative | Inert as tested |  |  |  | 200 µM |  | Detergent-insensitive |  |  | negative | 0.5 µM | cell-impermeable
